Results taken from patent publication US9328083B2, “2-aminated methylene or 2-esterified methylene tanshinone derivatives, and preparation method and application thereof” (HANGZHOU BENSHENG PHARMACEUTICAL CO., LTD., priority 2011, dated 2016).
≈ marks a conversion by molar mass, not a printed value. One block for each molecule: values may come before it.

Experiments:
[1] = test system: Jurkat (acute lymphoblastic leukemia, ALL); experiment: MTT growth inhibition of leukemia cells, 72 h; type: cell-based, human; conditions: Homo sapiens, 72 h; for IC50: read-out: IC50; for IC90: read-out: IC90
From the text: (§1) Leukemia cell lines: leukemia cell lines: K562/adr (drug-resistant, chronic myeloid leukemia, CML), NB4 (acute promyelocytic leukemia, AML), Kasumi-1 (acute myeloid leukemia M2 type, AML-M2), and Jurkat (acute lymphoblastic leukemia, ALL), all of which are donated by Cancer Research Institute of Zhejiang University, China; and H9 (acute lymphoblastic leukemia, ALL), which is purchased from China Center for Type Culture Collection (CCTCC).
(§2) The standard sample of tanshinone I (TA) and the 2-aminated methylene or 2-esterified methylene tanshinone I derivatives of the present invention are sufficiently dissolved with dimethylsulfoxide to produce a stock solution of 10 mg/mL, which is refrigerated at 4° C. and stored in dark, and is diluted with a cell culture medium to the desired concentration prior to experimentation.
(§3) Obtaining 6000 well-growing leukemia cells and inoculating them into wells of a 96-well cell culture plate. The culture medium is the RPMI-1640 cell culture medium containing 10% fetal bovine serum. After adding on the second day the 2-aminated methylene or 2-esterified methylene tanshinone I derivatives of different concentrations and mixing uniformly, placing the plate in a carbon dioxide cell incubator (5% CO2) at 37° C. and incubated for 72 hours. Then the viable cell concentration is determined by MTT method.

[2] = test system: K562/adr (drug-resistant, chronic myeloid leukemia, CML); experiment: MTT growth inhibition of leukemia cells, 72 h; type: cell-based, human; conditions: Homo sapiens, K562/Adr; for IC50: read-out: IC50; for IC90: read-out: IC90
From the text: as §1, §2, §3

[3] = test system: H9 (acute lymphoblastic leukemia, ALL); experiment: MTT growth inhibition of leukemia cells, 72 h; type: cell-based, human; conditions: for improvement of anti-H9 activity as compared with tanshinone I: H9, vs tanshinone I; for IC50 / IC90: Homo sapiens, H9, 72 h; for IC50: read-out: IC50; for IC90: read-out: IC90
From the text: as §1, §2, §3

[4] = test system: NB4 (acute promyelocytic leukemia, AML); experiment: MTT growth inhibition of leukemia cells, 72 h; type: cell-based, human; conditions: for IC50 / IC90: Homo sapiens, NB4, 72 h; for IC50: read-out: IC50; for IC90: read-out: IC90
From the text: as §1, §2, §3

[5] = test system: Kasumi-1 (acute myeloid leukemia M2 type, AML-M2); experiment: MTT growth inhibition of leukemia cells, 72 h; type: cell-based, human; conditions: Homo sapiens, Kasumi-1, 72 h; for IC50: read-out: IC50; for IC90: read-out: IC90
From the text: as §1, §2, §3

[6] = test system: RPMI8226 (multiple myeloma); experiment: MTT growth inhibition of multiple myeloma cells, 72 h; type: cell-based, human; conditions: Homo sapiens, RPMI 8226, 72 h; for IC50: read-out: IC50; for IC90: read-out: IC90
Protocol: Myeloma cell lines: RPMI8226 (multiple myeloma), purchased from Fuxiang Bio-tech Co. Ltd., Shanghai, China.
as §2
as §3, with “myeloma” for “leukemia”, “cells as above” for “cells”, “1640” for “RPMI-1640”, “adding” for “adding on the second day”

[7] = test system: Hela (human cervical cancer cell); experiment: MTT growth inhibition of human solid tumor cells, 72 h; type: cell-based; conditions: for IC50 / IC90: Homo sapiens, HeLa, 72 h; for IC50: read-out: IC50; for IC90: read-out: IC90
Protocol: (§4) Hep-2 (laryngeal carcinoma), A549 (human lung cancer), CaES-17 (esophageal cancer cell), PC-3 (prostate cancer), CNE (nasopharyngeal carcinoma cell), and SK-OV-3 (ovarian cancer cell), all of which are purchased from China Center For Type Culture Collection; RKO (human colon adenocarcinoma cell), MGC 803 (human gastric cancer cell), MG63 (osteosarcoma) and U87 MG (malignant glioma cell), all of which are purchased from Fuxiang Bio-tech Co. Ltd., Shanghai, China; PANC-1 (pancreatic cancer), Hep G2 (human liver cancer cell), Becap37 (human breast cancer cell) and Hela (human cervical cancer cell), all of which are donated by Cancer Research Institute of Zhejiang University, China.
as §2
(§5) Obtaining 4000 well-growing human solid tumor cells and inoculating them into wells of a 96-well cell culture plate. The culture medium is DMEM High Glucose cell culture medium containing 10% fetal bovine serum. The plate is placed in a carbon dioxide cell incubator (5% CO2) at 37° C. and incubated for 24 hours. After adding the 2-aminated methylene or 2-esterified methylene tanshinone I derivatives of different concentrations and mixing uniformly, the plate is placed in a carbon dioxide cell incubator (5% CO2) at 37° C. and incubated for 72 hours. Then the viable cell concentration is determined by the MTT method.

[8] = test system: SK-OV-3 (ovarian cancer cell); experiment: as above; type: cell-based; conditions: Homo sapiens, SK-OV-3, 72 h; for IC50: read-out: IC50; for IC90: read-out: IC90
Protocol: as §4, §2, §5

[9] = test system: Becap37 (human breast cancer cell); experiment: as above; type: cell-based; conditions: Homo sapiens, Becap-37, 72 h; for IC50: read-out: IC50; for IC90: read-out: IC90
Protocol: as §4, §2, §5

[10] = test system: U87 MG (malignant glioma cell); experiment: as above; type: cell-based; conditions: for IC50 / IC90: Homo sapiens, U-87 MG, U87-MG, 72 h; for IC50: read-out: IC50; for IC90: read-out: IC90
Protocol: as §4, §2, §5

[11] = test system: CaES-17 (esophageal cancer cell); experiment: as above; type: cell-based; conditions: Homo sapiens, CaEs17, CaEs-17, 72 h; for IC50: read-out: IC50; for IC90: read-out: IC90
Protocol: as §4, §2, §5

[12] = test system: RKO (human colon adenocarcinoma cell); experiment: as above; type: cell-based; conditions: Homo sapiens; for IC50: read-out: IC50; for IC90: read-out: IC90
Protocol: as §4, §2, §5

A549 (human lung cancer) = experiment: as above; type: cell-based; conditions: Homo sapiens, A549, 72 h; for IC50: read-out: IC50; for IC90: read-out: IC90
Protocol: as §4, §2, §5

MG63 (osteosarcoma) = experiment: as above; type: cell-based; conditions: Homo sapiens, MG-63, 72 h; for IC50: read-out: IC50; for IC90: read-out: IC90
Protocol: as §4, §2, §5

PC-3 (prostate cancer) = experiment: as above; type: cell-based; conditions: Homo sapiens, PC-3, 72 h; for IC50: read-out: IC50; for IC90: read-out: IC90
Protocol: as §4, §2, §5

[13] = test system: CNE (nasopharyngeal carcinoma cell); experiment: as above; type: cell-based; conditions: Homo sapiens; for IC50: read-out: IC50; for IC90: read-out: IC90
Protocol: as §4, §2, §5

[14] = test system: Hep-2 (laryngeal carcinoma); experiment: as above; type: cell-based; conditions: for IC50 / IC90: Homo sapiens, HEp-2, 72 h; for IC50: read-out: IC50; for IC90: read-out: IC90
Protocol: as §4, §2, §5

[15] = test system: MGC 803 (human gastric cancer cell); experiment: as above; type: cell-based; conditions: Homo sapiens, MGC-803, 72 h; for IC50: read-out: IC50; for IC90: read-out: IC90
Protocol: as §4, §2, §5

[16] = test system: Hep G2 (human liver cancer cell); experiment: as above; type: cell-based; conditions: Homo sapiens, HepG2, Hep G2, 72 h; for IC50: read-out: IC50; for IC90: read-out: IC90
Protocol: as §4, §2, §5

[17] = test system: PANC-1 (pancreatic cancer); experiment: as above; type: cell-based; conditions: Homo sapiens, PANC-1, 72 h; for IC50: read-out: IC50; for IC90: read-out: IC90
Protocol: as §4, §2, §5

IC50 [1]: 0.17 µg/mL (≈ 0.487 µM) | IC90 [1]: 0.47 µg/mL (≈ 1.35 µM) | IC50 [2]: 0.16 µg/mL (≈ 0.458 µM) | IC90 [2]: 1.08 µg/mL (≈ 3.09 µM) | IC50 [3]: 0.13 µg/mL (≈ 0.372 µM) | IC90 [3]: 0.41 µg/mL (≈ 1.17 µM) | IC50 [4]: 0.04 µg/mL (≈ 0.114 µM) | IC90 [4]: 0.08 µg/mL (≈ 0.229 µM) | IC50 [5]: 0.074 µg/mL (≈ 0.212 µM) | IC90 [5]: 0.12 µg/mL (≈ 0.343 µM) | IC50 [6]: 0.125 µg/mL (≈ 0.358 µM) | IC90 [6]: 0.25 µg/mL (≈ 0.716 µM) | IC50 [7]: 0.42 µg/mL (≈ 1.2 µM) | IC90 [7]: 1 µg/mL (≈ 2.86 µM) | IC50 [8]: 0.86 µg/mL (≈ 2.46 µM) | IC90 [8]: 1.91 µg/mL (≈ 5.47 µM) | IC50 [9]: 0.27 µg/mL (≈ 0.773 µM) | IC90 [9]: 0.68 µg/mL (≈ 1.95 µM) | IC50 [10]: 0.15 µg/mL (≈ 0.429 µM) | IC90 [10]: 0.35 µg/mL (≈ 1 µM) | IC50 [11]: 0.3 µg/mL (≈ 0.859 µM) | IC90 [11]: 0.81 µg/mL (≈ 2.32 µM) | IC50 [12]: 0.037 µg/mL (≈ 0.106 µM) | IC90 [12]: 0.29 µg/mL (≈ 0.83 µM) | IC50 (A549 (human lung cancer)): 0.979 µg/mL (≈ 2.8 µM) | IC90 (A549 (human lung cancer)): 3.52 µg/mL (≈ 10.1 µM) | IC50 (MG63 (osteosarcoma)): 0.31 µg/mL (≈ 0.887 µM) | IC90 (MG63 (osteosarcoma)): 0.98 µg/mL (≈ 2.8 µM) | IC50 (PC-3 (prostate cancer)): 0.44 µg/mL (≈ 1.26 µM) | IC90 (PC-3 (prostate cancer)): 3.58 µg/mL (≈ 10.2 µM) | IC50 [13]: 0.6 µg/mL (≈ 1.72 µM) | IC90 [13]: 1.8 µg/mL (≈ 5.15 µM) | IC50 [14]: 0.78 µg/mL (≈ 2.23 µM) | IC90 [14]: 2.38 µg/mL (≈ 6.81 µM) | IC50 [15]: 0.15 µg/mL (≈ 0.429 µM) | IC90 [15]: 1.7 µg/mL (≈ 4.87 µM) | IC50 [16]: 0.31 µg/mL (≈ 0.887 µM) | IC90 [16]: 1.5 µg/mL (≈ 4.29 µM) | IC50 [17]: 0.26 µg/mL (≈ 0.744 µM) | IC90 [17]: 1.9 µg/mL (≈ 5.44 µM)
Compound: Cc1c(CNCCO)oc2c1C(=O)C(=O)c1c-2ccc2c(C)cccc12 [BS-TA-65]
improvement of anti-H9 activity as compared with tanshinone I [3]: 27 fold | improvement of anti-NB4 activity as compared with tanshinone I ([4]; NB4, vs tanshinone I): 24 fold | improvement of anti-U87 MG activity as compared with tanshinone I ([10]; U87 MG, vs tanshinone I): more than 42 fold

IC50 [1]: 0.37 µg/mL (≈ 0.8 µM) | IC90 [1]: 0.94 µg/mL (≈ 2.03 µM) | IC50 [2]: 0.47 µg/mL (≈ 1.02 µM) | IC90 [2]: 0.76 µg/mL (≈ 1.64 µM) | IC50 [3]: 0.125 µg/mL (≈ 0.27 µM) | IC90 [3]: 0.49 µg/mL (≈ 1.06 µM) | IC50 [4]: 0.15 µg/mL (≈ 0.324 µM) | IC90 [4]: 0.41 µg/mL (≈ 0.886 µM) | IC50 [5]: 0.13 µg/mL (≈ 0.281 µM) | IC90 [5]: 0.39 µg/mL (≈ 0.843 µM) | IC50 [6]: 0.25 µg/mL (≈ 0.54 µM) | IC90 [6]: 0.83 µg/mL (≈ 1.79 µM) | IC50 [7]: 0.47 µg/mL (≈ 1.02 µM) | IC90 [7]: 1.75 µg/mL (≈ 3.78 µM) | IC50 [8]: 1.66 µg/mL (≈ 3.59 µM) | IC90 [8]: 3.39 µg/mL (≈ 7.33 µM) | IC50 [9]: 0.4 µg/mL (≈ 0.865 µM) | IC90 [9]: 0.9 µg/mL (≈ 1.95 µM) | IC50 [10]: 0.66 µg/mL (≈ 1.43 µM) | IC90 [10]: 1.55 µg/mL (≈ 3.35 µM) | IC50 [11]: 0.52 µg/mL (≈ 1.12 µM) | IC90 [11]: 0.59 µg/mL (≈ 1.28 µM) | IC50 [12]: 0.14 µg/mL (≈ 0.303 µM) | IC90 [12]: 1.28 µg/mL (≈ 2.77 µM) | IC50 (A549 (human lung cancer)): 0.8 µg/mL (≈ 1.73 µM) | IC90 (A549 (human lung cancer)): 2.82 µg/mL (≈ 6.1 µM) | IC50 (MG63 (osteosarcoma)): 0.61 µg/mL (≈ 1.32 µM) | IC90 (MG63 (osteosarcoma)): 1.79 µg/mL (≈ 3.87 µM) | IC50 (PC-3 (prostate cancer)): 0.92 µg/mL (≈ 1.99 µM) | IC90 (PC-3 (prostate cancer)): 3.74 µg/mL (≈ 8.09 µM) | IC50 [13]: 0.63 µg/mL (≈ 1.36 µM) | IC90 [13]: 1.43 µg/mL (≈ 3.09 µM) | IC50 [14]: 0.62 µg/mL (≈ 1.34 µM) | IC90 [14]: 1.76 µg/mL (≈ 3.81 µM) | IC50 [15]: 0.41 µg/mL (≈ 0.886 µM) | IC90 [15]: 2.24 µg/mL (≈ 4.84 µM) | IC50 [16]: 0.66 µg/mL (≈ 1.43 µM) | IC90 [16]: 1.85 µg/mL (≈ 4 µM) | IC50 [17]: 0.4 µg/mL (≈ 0.865 µM) | IC90 [17]: 4.73 µg/mL (≈ 10.2 µM)
Compound: Cc1c(CN(C)CCOC(=O)[C@@H](N)C(C)C)oc2c1C(=O)C(=O)c1c-2ccc2c(C)cccc12 [BS-TA-71]
improvement of anti-H9 activity as compared with tanshinone I [3]: 28 fold | improvement of anti-Hela activity as compared with tanshinone I ([7]; Hela, vs tanshinone I): more than 8 fold | improvement of anti-Hep-2 activity as compared with tanshinone I ([14]; Hep-2, vs tanshinone I): more than 4 fold
